# Measured values reported in patent US20230123334A1, “AMINO LIPID COMPOUND, PREPARATION METHOD THEREFOR, AND APPLICATION THEREOF” (SHENZHEN SHENXIN BIOTECHNOLOGY CO., LTD., priority 2020, published 2023).
# System: HEK293 cells
# Experiment: Preliminary screening as DNA vectors, GFP transfection of HEK293 cells
# Type: cell-based
# Details: amino lipid/DOPE liposome with 75 ng plasmid DNA (psin-EGFP-IRES-Puro); number of GFP-expressing cells divided by total nuclei (Hoechst)
# Procedure, shortened: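 First, amino lipid and DOPE were vortexed in sodium acetate buffer (pH 5.6) to form liposomes. Next, these were held with 75 ng EGFP plasmid at room temperature for 30 min. Finally, HEK293 cells were added, cultured at 37° C., Hoechst-stained, and GFP+/total nuclei scored by imaging.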
row,SMILES,Absolute DNA transfection efficiency in HEK293 cells [%]
1,CCCCCCCCCCCCCCCCSc1nc(NCCCCCCCCCCCCCCC)nc(NCCN2CCCC2)n1 [S16N15 D3],0.0
2,CCCCCCCCCCCCCCCCSc1nc(NCCCCCCCCCCCCCCC)nc(NCCN2CCCCC2)n1 [S16N15 D4],2.6
3,CCCCCCCCCCCCCCCCSc1nc(NCCCCCCCCCCCCCCC)nc(NCCN2CCN(C)CC2)n1 [S16N15 D5],0.3
4,CCCCCCCCCCCCCCCCSc1nc(NCCCCCCCCCCCCCCC)nc(NCCCN(C)C)n1 [S16N15 D6],0.0
5,CCCCCCCCCCCCCCCCSc1nc(NCCCCCCCCCCCCCCC)nc(NCCN(CC)CC)n1 [S16N15 D7],0.6
6,CCCCCCCCCCCCCCCCSc1nc(NCCCCCCCCCCCCCCC)nc(NCCCN2CCOCC2)n1 [S16N15 D8],0.0
7,CCCCCCCCCCCCCCCCSc1nc(NCCCCCCCCCCCCCCC)nc(NCCCN2CCN(C)CC2)n1 [S16N15 D9],0.3
8,CCCCCCCCCCCCCCCCSc1nc(NCCCCCCCCCCCCCCC)nc(NCC2CCN(C)CC2)n1 [S16N15 D10],0.2
9,CCCCCCCCCCCCCCCCNc1nc(NCCN(C)C)nc(SCCCCCCCCCCCCCCCC)n1 [S16N16 D1],0.7
10,CCCCCCCCCCCCCCCCNc1nc(NCCN2CCOCC2)nc(SCCCCCCCCCCCCCCCC)n1 [S16N16 D2],0.0
11,CCCCCCCCCCCCCCCCNc1nc(NCCN2CCCC2)nc(SCCCCCCCCCCCCCCCC)n1 [S16N16 D3],1.6
12,CCCCCCCCCCCCCCCCNc1nc(NCCN2CCCCC2)nc(SCCCCCCCCCCCCCCCC)n1 [S16N16 D4],3.4
13,CCCCCCCCCCCCCCCCNc1nc(NCCN2CCN(C)CC2)nc(SCCCCCCCCCCCCCCCC)n1 [S16N16 D5],0.5
14,CCCCCCCCCCCCCCCCNc1nc(NCCCN(C)C)nc(SCCCCCCCCCCCCCCCC)n1 [S16N16 D6],0.1
15,CCCCCCCCCCCCCCCCNc1nc(NCCN(CC)CC)nc(SCCCCCCCCCCCCCCCC)n1 [S16N16 D7],0.2
16,CCCCCCCCCCCCCCCCNc1nc(NCCCN2CCOCC2)nc(SCCCCCCCCCCCCCCCC)n1 [S16N16 D8],0.0
17,CCCCCCCCCCCCCCCCNc1nc(NCCCN2CCN(C)CC2)nc(SCCCCCCCCCCCCCCCC)n1 [S16N16 D9],0.0
18,CCCCCCCCCCCCCCCCNc1nc(NCC2CCN(C)CC2)nc(SCCCCCCCCCCCCCCCC)n1 [S16N16 D10],0.2
19,CCCCCCCCCCCCCCCCCCNc1nc(NCCN(C)C)nc(SCCCCCCCCCCCCCCCC)n1 [S16N18 D1],0.3
20,CCCCCCCCCCCCCCCCCCNc1nc(NCCN2CCOCC2)nc(SCCCCCCCCCCCCCCCC)n1 [S16N18 D2],0.0
21,CCCCCCCCCCCCCCCCCCNc1nc(NCCN2CCCC2)nc(SCCCCCCCCCCCCCCCC)n1 [S16N18 D3],0.6
22,CCCCCCCCCCCCCCCCCCNc1nc(NCCN2CCCCC2)nc(SCCCCCCCCCCCCCCCC)n1 [S16N18 D4],0.2

row,SMILES,Absolute DNA transfection efficiency in HEK293 cells [%]
1,CCCCCCCCCCCCCCCCCCNc1nc(NCCN2CCN(C)CC2)nc(SCCCCCCCCCCCCCCCC)n1 [S16N18 D5],0.0
2,CCCCCCCCCCCCCCCCCCNc1nc(NCCCN(C)C)nc(SCCCCCCCCCCCCCCCC)n1 [S16N18 D6],0.0
3,CCCCCCCCCCCCCCCCCCNc1nc(NCCN(CC)CC)nc(SCCCCCCCCCCCCCCCC)n1 [S16N18 D7],0.0
4,CCCCCCCCCCCCCCCCCCNc1nc(NCCCN2CCOCC2)nc(SCCCCCCCCCCCCCCCC)n1 [S16N18 D8],0.0
5,CCCCCCCCCCCCCCCCCCNc1nc(NCCCN2CCN(C)CC2)nc(SCCCCCCCCCCCCCCCC)n1 [S16N18 D9],0.0
6,CCCCCCCCCCCCCCCCCCNc1nc(NCC2CCN(C)CC2)nc(SCCCCCCCCCCCCCCCC)n1 [S16N18 D10],1.2
7,CCCCCCCCCCCCCCCCSc1nc(NCCN(C)C)nc(N(CCCCCCCCCCCC)CCCCCCCCCCCC)n1 [S16^2N12 D1],0.0
8,CCCCCCCCCCCCCCCCSc1nc(NCCN2CCOCC2)nc(N(CCCCCCCCCCCC)CCCCCCCCCCCC)n1 [S16^2N12 D2],0.0
9,CCCCCCCCCCCCCCCCSc1nc(NCCN2CCCC2)nc(N(CCCCCCCCCCCC)CCCCCCCCCCCC)n1 [S16^2N12 D3],0.0
10,CCCCCCCCCCCCCCCCSc1nc(NCCN2CCCCC2)nc(N(CCCCCCCCCCCC)CCCCCCCCCCCC)n1 [S16^2N12 D4],0.1
11,CCCCCCCCCCCCCCCCSc1nc(NCCN2CCN(C)CC2)nc(N(CCCCCCCCCCCC)CCCCCCCCCCCC)n1 [S16^2N12 D5],0.0
12,CCCCCCCCCCCCCCCCSc1nc(NCCCN(C)C)nc(N(CCCCCCCCCCCC)CCCCCCCCCCCC)n1 [S16^2N12 D6],0.0
13,CCCCCCCCCCCCCCCCSc1nc(NCCN(CC)CC)nc(N(CCCCCCCCCCCC)CCCCCCCCCCCC)n1 [S16^2N12 D7],0.1
14,CCCCCCCCCCCCCCCCSc1nc(NCCCN2CCOCC2)nc(N(CCCCCCCCCCCC)CCCCCCCCCCCC)n1 [S16^2N12 D8],0.0
15,CCCCCCCCCCCCCCCCSc1nc(NCCCN2CCN(C)CC2)nc(N(CCCCCCCCCCCC)CCCCCCCCCCCC)n1 [S16^2N12 D9],0.6
16,CCCCCCCCCCCCCCCCSc1nc(NCC2CCN(C)CC2)nc(N(CCCCCCCCCCCC)CCCCCCCCCCCC)n1 [S16^2N12 D10],0.3
17,CCCCCCCCCCCCCCCCCCSc1nc(NCCCCCC)nc(NCCN(C)C)n1 [S18N6 D1],6.9
18,CCCCCCCCCCCCCCCCCCSc1nc(NCCCCCC)nc(NCCN2CCOCC2)n1 [S18N6 D2],5.9
19,CCCCCCCCCCCCCCCCCCSc1nc(NCCCCCC)nc(NCCN2CCCC2)n1 [S18N6 D3],22.1
20,CCCCCCCCCCCCCCCCCCSc1nc(NCCCCCC)nc(NCCN2CCCCC2)n1 [S18N6 D4],7.2
21,CCCCCCCCCCCCCCCCCCSc1nc(NCCCCCC)nc(NCCN2CCN(C)CC2)n1 [S18N6 D5],18.1
22,CCCCCCCCCCCCCCCCCCSc1nc(NCCCCCC)nc(NCCCN(C)C)n1 [S18N6 D6],14.5

row,SMILES,Absolute DNA transfection efficiency in HEK293 cells [%]
1,CCCCCCCCCCCCCCCCCCSc1nc(NCCCCCC)nc(NCCN(CC)CC)n1 [S18N6 D7],10.4
2,CCCCCCCCCCCCCCCCCCSc1nc(NCCCCCC)nc(NCCCN2CCOCC2)n1 [S18N6 D8],5.5
3,CCCCCCCCCCCCCCCCCCSc1nc(NCCCCCC)nc(NCCCN2CCN(C)CC2)n1 [S18N6 D9],11.0
4,CCCCCCCCCCCCCCCCCCSc1nc(NCCCCCC)nc(NCC2CCN(C)CC2)n1 [S18N6 D10],8.9
5,CCCCCCCCCCCCCCCCCCSc1nc(NCCCCCCC)nc(NCCN(C)C)n1 [S18N7 D1],6.8
6,CCCCCCCCCCCCCCCCCCSc1nc(NCCCCCCC)nc(NCCN2CCOCC2)n1 [S18N7 D2],3.2
7,CCCCCCCCCCCCCCCCCCSc1nc(NCCCCCCC)nc(NCCN2CCCC2)n1 [S18N7 D3],15.6
8,CCCCCCCCCCCCCCCCCCSc1nc(NCCCCCCC)nc(NCCN2CCCCC2)n1 [S18N7 D4],3.5
9,CCCCCCCCCCCCCCCCCCSc1nc(NCCCCCCC)nc(NCCN2CCN(C)CC2)n1 [S18N7 D5],28.2
10,CCCCCCCCCCCCCCCCCCSc1nc(NCCCCCCC)nc(NCCCN(C)C)n1 [S18N7 D6],20.7
11,CCCCCCCCCCCCCCCCCCSc1nc(NCCCCCCC)nc(NCCN(CC)CC)n1 [S18N7 D7],4.5
12,CCCCCCCCCCCCCCCCCCSc1nc(NCCCCCCC)nc(NCCCN2CCOCC2)n1 [S18N7 D8],3.9
13,CCCCCCCCCCCCCCCCCCSc1nc(NCCCCCCC)nc(NCCCN2CCN(C)CC2)n1 [S18N7 D9],9.3
14,CCCCCCCCCCCCCCCCCCSc1nc(NCCCCCCC)nc(NCC2CCN(C)CC2)n1 [S18N7 D10],13.5
15,CCCCCCCCCCCCCCCCCCSc1nc(NCCCCCCCC)nc(NCCN(C)C)n1 [S18N8 D1],4.1
16,CCCCCCCCCCCCCCCCCCSc1nc(NCCCCCCCC)nc(NCCN2CCOCC2)n1 [S18N8 D2],3.8
17,CCCCCCCCCCCCCCCCCCSc1nc(NCCCCCCCC)nc(NCCN2CCCC2)n1 [S18N8 D3],9.6
18,CCCCCCCCCCCCCCCCCCSc1nc(NCCCCCCCC)nc(NCCN2CCCCC2)n1 [S18N8 D4],3.9
19,CCCCCCCCCCCCCCCCCCSc1nc(NCCCCCCCC)nc(NCCN2CCN(C)CC2)n1 [S18N8 D5],13.6
20,CCCCCCCCCCCCCCCCCCSc1nc(NCCCCCCCC)nc(NCCCN(C)C)n1 [S18N8 D6],23.0
21,CCCCCCCCCCCCCCCCCCSc1nc(NCCCCCCCC)nc(NCCN(CC)CC)n1 [S18N8 D7],6.7
22,CCCCCCCCCCCCCCCCCCSc1nc(NCCCCCCCC)nc(NCCCN2CCOCC2)n1 [S18N8 D8],2.0
